Measurements taken from the NIST ThermoML archive (doi:10.1016/j.tca.2005.11.041).

Experiment: excess molar enthalpy (molar enthalpy of mixing); xn = mol fraction of the nth substance listed
Settings: 298.15 K, Liquid, Flow calorimetry

COC=O [methyl methanoate] + CC(C)O
Settings | excess molar enthalpy [kcal/mol]
5000 kPa, x1 = 0.0399 | 0.08475
5000 kPa, x1 = 0.0822 | 0.1674
5000 kPa, x1 = 0.1235 | 0.2356
5000 kPa, x1 = 0.1656 | 0.2947
5000 kPa, x1 = 0.2102 | 0.3451
5000 kPa, x1 = 0.2556 | 0.3878
5000 kPa, x1 = 0.3 | 0.4214
5000 kPa, x1 = 0.3471 | 0.4472
5000 kPa, x1 = 0.3951 | 0.4659
5000 kPa, x1 = 0.444 | 0.4756
5000 kPa, x1 = 0.4938 | 0.4777
5000 kPa, x1 = 0.5447 | 0.4726
5000 kPa, x1 = 0.5965 | 0.4596
5000 kPa, x1 = 0.6494 | 0.4357
5000 kPa, x1 = 0.7055 | 0.3992
5000 kPa, x1 = 0.7606 | 0.3557
5000 kPa, x1 = 0.8191 | 0.2934
5000 kPa, x1 = 0.8766 | 0.223
5000 kPa, x1 = 0.9376 | 0.1214
10000 kPa, x1 = 0.0398 | 0.0857
10000 kPa, x1 = 0.082 | 0.1675
10000 kPa, x1 = 0.1232 | 0.2355
10000 kPa, x1 = 0.1651 | 0.2936
10000 kPa, x1 = 0.2096 | 0.3446
10000 kPa, x1 = 0.2549 | 0.3862
10000 kPa, x1 = 0.2993 | 0.4185
10000 kPa, x1 = 0.3463 | 0.4443
10000 kPa, x1 = 0.3943 | 0.4624
10000 kPa, x1 = 0.4432 | 0.4723
10000 kPa, x1 = 0.493 | 0.4745
10000 kPa, x1 = 0.5439 | 0.4703
10000 kPa, x1 = 0.5957 | 0.4555
10000 kPa, x1 = 0.6487 | 0.4324
10000 kPa, x1 = 0.7048 | 0.3963
10000 kPa, x1 = 0.76 | 0.351
10000 kPa, x1 = 0.8186 | 0.2901
10000 kPa, x1 = 0.8762 | 0.2164
10000 kPa, x1 = 0.9374 | 0.118

COC=O [methyl methanoate] + CCC(C)O
excess molar enthalpy [kcal/mol]
Settings | 5000 kPa | 10000 kPa
x1 = 0.0501 | 0.1085 | –
x1 = 0.0996 | – | 0.2144
x1 = 0.1 | 0.2057 | –
x1 = 0.1496 | 0.2851 | –
x1 = 0.15 | – | 0.2904
x1 = 0.1994 | – | 0.3556
x1 = 0.2 | 0.3517 | –
x1 = 0.2493 | – | 0.4085
x1 = 0.2496 | 0.4039 | –
x1 = 0.2997 | – | 0.4503
x1 = 0.2999 | 0.4445 | –
x1 = 0.3504 | – | 0.4797
x1 = 0.3508 | 0.4745 | –
x1 = 0.3993 | – | 0.4997
x1 = 0.4004 | 0.4926 | –
x1 = 0.4503 | 0.5028 | –
x1 = 0.4504 | – | 0.5095
x1 = 0.4992 | – | 0.5099
x1 = 0.5003 | 0.5039 | –
x1 = 0.5501 | – | 0.5012
x1 = 0.5505 | 0.4958 | –
x1 = 0.6006 | 0.4793 | 0.4852
x1 = 0.6505 | 0.4572 | –
x1 = 0.6508 | – | 0.4587
x1 = 0.7002 | 0.4214 | –
x1 = 0.7003 | – | 0.4234
x1 = 0.7491 | – | 0.3804
x1 = 0.7494 | 0.3806 | –
x1 = 0.7997 | – | 0.3235
x1 = 0.8004 | 0.3283 | –
x1 = 0.8494 | – | 0.2584
x1 = 0.8509 | 0.2606 | –
x1 = 0.9006 | 0.1836 | –
x1 = 0.9008 | – | 0.1743
x1 = 0.9495 | 0.09928 | –

COC=O [methyl methanoate] + CCCCCO
Settings | excess molar enthalpy [kcal/mol]
5000 kPa, x1 = 0.0507 | 0.1315
5000 kPa, x1 = 0.0997 | 0.2364
5000 kPa, x1 = 0.1503 | 0.3231
5000 kPa, x1 = 0.2004 | 0.3893
5000 kPa, x1 = 0.2494 | 0.4395
5000 kPa, x1 = 0.2991 | 0.4781
5000 kPa, x1 = 0.3496 | 0.5052
5000 kPa, x1 = 0.4005 | 0.5217
5000 kPa, x1 = 0.4488 | 0.5278
5000 kPa, x1 = 0.4998 | 0.5254
5000 kPa, x1 = 0.5506 | 0.5101
5000 kPa, x1 = 0.6009 | 0.493
5000 kPa, x1 = 0.6503 | 0.4643
5000 kPa, x1 = 0.6986 | 0.4309
5000 kPa, x1 = 0.7492 | 0.3859
5000 kPa, x1 = 0.7983 | 0.3299
5000 kPa, x1 = 0.8497 | 0.2628
5000 kPa, x1 = 0.8992 | 0.181
5000 kPa, x1 = 0.9509 | 0.08525
10000 kPa, x1 = 0.0505 | 0.1287
10000 kPa, x1 = 0.0994 | 0.2336
10000 kPa, x1 = 0.1499 | 0.3196
10000 kPa, x1 = 0.1998 | 0.386
10000 kPa, x1 = 0.251 | 0.438
10000 kPa, x1 = 0.3009 | 0.476
10000 kPa, x1 = 0.3488 | 0.5032
10000 kPa, x1 = 0.3997 | 0.5192
10000 kPa, x1 = 0.4509 | 0.5253
10000 kPa, x1 = 0.499 | 0.5227
10000 kPa, x1 = 0.5498 | 0.5116
10000 kPa, x1 = 0.6001 | 0.4941
10000 kPa, x1 = 0.6496 | 0.4661
10000 kPa, x1 = 0.7017 | 0.4273
10000 kPa, x1 = 0.7486 | 0.3851
10000 kPa, x1 = 0.802 | 0.3276
10000 kPa, x1 = 0.8493 | 0.2631
10000 kPa, x1 = 0.8988 | 0.1821
10000 kPa, x1 = 0.9507 | 0.0824
